Laboratory results published in ChEMBL document CHEMBL1201862, “PubChem BioAssay data set” (2004).
The source made the active and inactive calls.

Legend:
Aminopeptidase N = molecular target: T1, Aminopeptidase N (Plasmodium falciparum FcB1/Columbia, UniProt O96935); test: malaria alanyl aminopeptidase activity blockers – biochemical, fluorogenic H-Leu-NHMec substrate, 1536-well (AID 1445); set-up: species or system Plasmodium falciparum 3D7, 3D7
T1 sequence (O96935 whole entry): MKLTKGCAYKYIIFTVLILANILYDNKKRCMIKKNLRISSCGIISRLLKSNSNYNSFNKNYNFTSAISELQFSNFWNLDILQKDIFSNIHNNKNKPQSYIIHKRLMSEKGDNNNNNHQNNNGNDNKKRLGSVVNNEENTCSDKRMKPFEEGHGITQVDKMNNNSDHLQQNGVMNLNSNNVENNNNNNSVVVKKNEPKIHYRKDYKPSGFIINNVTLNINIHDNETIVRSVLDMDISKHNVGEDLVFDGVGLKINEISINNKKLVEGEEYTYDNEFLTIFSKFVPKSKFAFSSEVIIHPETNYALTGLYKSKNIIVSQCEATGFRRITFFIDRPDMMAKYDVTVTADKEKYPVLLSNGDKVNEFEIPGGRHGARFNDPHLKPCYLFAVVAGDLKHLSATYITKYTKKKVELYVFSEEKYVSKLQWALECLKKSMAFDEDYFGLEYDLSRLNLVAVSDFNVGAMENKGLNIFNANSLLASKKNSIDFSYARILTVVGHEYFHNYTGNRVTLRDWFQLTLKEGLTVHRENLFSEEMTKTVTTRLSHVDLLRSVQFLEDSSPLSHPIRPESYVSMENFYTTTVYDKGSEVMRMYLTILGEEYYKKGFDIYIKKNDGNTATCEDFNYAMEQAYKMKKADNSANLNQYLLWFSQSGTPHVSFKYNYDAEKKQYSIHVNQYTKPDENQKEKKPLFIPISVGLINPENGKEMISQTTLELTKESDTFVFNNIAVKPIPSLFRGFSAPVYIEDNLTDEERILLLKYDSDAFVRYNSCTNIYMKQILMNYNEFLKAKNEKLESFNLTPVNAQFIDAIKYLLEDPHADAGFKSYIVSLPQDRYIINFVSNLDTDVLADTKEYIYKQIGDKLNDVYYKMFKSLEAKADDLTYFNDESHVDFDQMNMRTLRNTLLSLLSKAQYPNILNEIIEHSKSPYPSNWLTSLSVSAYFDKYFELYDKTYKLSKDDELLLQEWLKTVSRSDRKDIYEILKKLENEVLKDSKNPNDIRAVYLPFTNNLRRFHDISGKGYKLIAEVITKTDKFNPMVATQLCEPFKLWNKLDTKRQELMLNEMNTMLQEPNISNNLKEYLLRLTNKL

[1] = molecular target: T2, RNA-binding protein pos-1 (Caenorhabditis elegans, UniProt G5EF15); test: disruptors of C. elegans POS-1 RNA interaction – biochemical, fluorescence polarization, dose response (AID 1964);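 further: purified POS-1 fused to maltose binding protein made in E. coli; potency of compounds blocking POS-1 binding to fluorescent RNA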
T2 sequence (G5EF15 whole entry): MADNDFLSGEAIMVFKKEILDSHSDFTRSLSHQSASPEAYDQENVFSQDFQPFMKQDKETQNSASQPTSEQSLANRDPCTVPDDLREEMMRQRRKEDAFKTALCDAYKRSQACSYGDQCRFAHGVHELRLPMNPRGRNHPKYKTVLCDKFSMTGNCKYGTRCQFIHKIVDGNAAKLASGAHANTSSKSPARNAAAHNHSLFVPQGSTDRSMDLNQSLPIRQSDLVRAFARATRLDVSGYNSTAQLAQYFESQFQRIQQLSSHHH

SUMO-activating enzyme [2] = molecular target: T3, SUMO-activating enzyme (Homo sapiens, UniProt Q9UBT2); test: blockers of UBC9-mediated SUMO conjugation – biochemical, AlphaScreen, SUMOylation inhibitor project, confirmation (AID 2018); format: functional
T3 sequence (Q9UBE0 whole entry): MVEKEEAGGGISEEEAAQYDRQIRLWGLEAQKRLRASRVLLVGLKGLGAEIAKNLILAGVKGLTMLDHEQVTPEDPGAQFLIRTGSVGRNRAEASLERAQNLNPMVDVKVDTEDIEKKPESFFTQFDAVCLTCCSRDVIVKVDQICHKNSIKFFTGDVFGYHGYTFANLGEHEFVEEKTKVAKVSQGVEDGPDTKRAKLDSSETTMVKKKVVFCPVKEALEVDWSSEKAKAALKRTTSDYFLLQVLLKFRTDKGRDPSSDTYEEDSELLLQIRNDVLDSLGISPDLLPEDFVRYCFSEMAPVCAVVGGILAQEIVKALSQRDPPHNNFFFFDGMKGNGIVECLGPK
T3 sequence (Q9UBT2 whole entry): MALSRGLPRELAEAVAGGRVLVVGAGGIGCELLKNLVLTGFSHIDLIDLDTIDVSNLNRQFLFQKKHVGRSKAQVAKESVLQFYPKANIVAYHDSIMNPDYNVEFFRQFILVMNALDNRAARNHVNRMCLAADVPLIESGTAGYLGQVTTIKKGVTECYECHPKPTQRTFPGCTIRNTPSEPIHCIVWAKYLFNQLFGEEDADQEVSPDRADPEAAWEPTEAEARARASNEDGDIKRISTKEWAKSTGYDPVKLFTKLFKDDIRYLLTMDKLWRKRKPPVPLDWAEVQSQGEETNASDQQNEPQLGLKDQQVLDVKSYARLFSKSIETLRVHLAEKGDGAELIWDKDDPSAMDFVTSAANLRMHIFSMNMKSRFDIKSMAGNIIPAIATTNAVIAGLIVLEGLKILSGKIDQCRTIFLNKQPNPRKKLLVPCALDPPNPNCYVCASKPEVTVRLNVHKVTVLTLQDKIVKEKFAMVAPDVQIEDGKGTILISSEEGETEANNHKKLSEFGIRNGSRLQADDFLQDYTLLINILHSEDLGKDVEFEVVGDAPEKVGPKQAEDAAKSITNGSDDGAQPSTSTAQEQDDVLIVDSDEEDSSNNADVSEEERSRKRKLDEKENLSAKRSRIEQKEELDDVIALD

[3] = molecular target: T4, Zinc finger protein mex-5 (Caenorhabditis elegans, UniProt Q9XUB2); test: potency of MEX-5 RNA-binding blockers – biochemical, C. elegans, fluorescence polarization, dose response (AID 1960)
T4 sequence (Q9XUB2 whole entry): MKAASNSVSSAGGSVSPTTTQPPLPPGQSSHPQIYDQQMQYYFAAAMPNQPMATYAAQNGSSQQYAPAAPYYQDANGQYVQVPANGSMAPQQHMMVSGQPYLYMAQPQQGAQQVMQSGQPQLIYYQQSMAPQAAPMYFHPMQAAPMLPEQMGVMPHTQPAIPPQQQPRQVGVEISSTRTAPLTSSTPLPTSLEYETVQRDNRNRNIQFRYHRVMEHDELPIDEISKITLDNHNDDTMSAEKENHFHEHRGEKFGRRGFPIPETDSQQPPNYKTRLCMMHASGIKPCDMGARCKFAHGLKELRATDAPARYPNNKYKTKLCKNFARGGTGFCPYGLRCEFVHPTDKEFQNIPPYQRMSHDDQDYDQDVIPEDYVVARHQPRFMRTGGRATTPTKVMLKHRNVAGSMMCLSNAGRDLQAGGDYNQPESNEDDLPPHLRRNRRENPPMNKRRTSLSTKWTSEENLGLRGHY

[4] = molecular target: T5, Heat shock factor protein 1 (Mus musculus, UniProt P38532); test: decrease of HSF1-responsive luciferase luminescence – cell-based, NIH3T3, dose retest, confirmation (AID 2382); format: functional;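 further: NIH3T3 fibroblasts with HSF1-driven luciferase reporter stressed by proteasome inhibitor MG132; luminescence from HSF1-driven luciferase expression after 8 hours of MG132 stress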
T5 sequence (P38532 whole entry): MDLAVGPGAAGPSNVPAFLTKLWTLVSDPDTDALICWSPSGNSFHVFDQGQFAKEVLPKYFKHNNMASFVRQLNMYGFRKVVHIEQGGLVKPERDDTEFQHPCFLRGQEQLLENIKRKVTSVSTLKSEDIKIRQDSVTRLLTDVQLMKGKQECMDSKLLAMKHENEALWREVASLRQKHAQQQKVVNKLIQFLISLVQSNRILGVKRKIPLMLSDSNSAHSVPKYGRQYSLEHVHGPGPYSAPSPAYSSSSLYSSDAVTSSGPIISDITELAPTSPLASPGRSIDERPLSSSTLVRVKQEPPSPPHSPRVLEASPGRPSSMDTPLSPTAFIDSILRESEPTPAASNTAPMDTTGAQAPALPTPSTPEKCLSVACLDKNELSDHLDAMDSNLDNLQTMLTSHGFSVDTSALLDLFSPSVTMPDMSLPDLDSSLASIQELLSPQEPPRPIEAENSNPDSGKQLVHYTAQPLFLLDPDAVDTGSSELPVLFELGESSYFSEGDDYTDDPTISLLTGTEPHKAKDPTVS

SUMO-activating enzyme [5] = molecular target: T3, SUMO-activating enzyme; test: blockers of SAE1/SAE2–UBC9 SUMO transfer – biochemical, HTRF, uHTS, primary screen (AID 2006); format: protein-complex assay
Nonstructural protein 1 = Nonstructural protein 1 (Influenza A virus, UniProt Q194T2); format: functional, Influenza A virus (A/California/07/2009(H1N1))
Chain of Nonstructural protein 1 (Q194T2 whole entry): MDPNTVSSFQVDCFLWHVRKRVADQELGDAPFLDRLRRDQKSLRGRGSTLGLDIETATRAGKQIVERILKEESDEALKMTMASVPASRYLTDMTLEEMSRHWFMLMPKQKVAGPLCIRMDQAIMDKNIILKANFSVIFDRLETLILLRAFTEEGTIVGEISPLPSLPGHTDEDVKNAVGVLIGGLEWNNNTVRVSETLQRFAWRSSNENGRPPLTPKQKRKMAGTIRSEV

[6] = system: Streptococcus sp. 'group A'; test: Streptococcus pyogenes SK(-)GAS viability under kanamycin – luminescence, BacTiterGlo, confirmation, counter-screen for streptokinase expression inhibitor project, dose response (AID 1900); format: functional, organism-based
[7] = Trypanosoma cruzi growth suppression in host cells – NIH3T3 host cells, beta-gal luminescence, confirmation (AID 2044); format: functional, cell-based;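 further: intracellular parasites grown in NIH/3T3 mouse fibroblasts as host cells; luminescent beta-galactosidase reporter signal from transgenic T. cruzi replicating inside host cells; inhibitors lower the luminescence signal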
Streptococcus = test: GAS UMAA2166 growth inhibition – luminescence, BacTiterGlo, counter-screen for streptokinase expression inhibitor project, dose response (AID 1915); format: functional, organism-based;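 further: potency for reduction of bacterial viability or growth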
[8] = molecular target: C-C chemokine receptor type 6 (Homo sapiens, UniProt P51684); test: antagonism of CCR6 beta-arrestin recruitment – cell-based, luminescent beta-arrestin readout, dose response (AID 504728); format: functional
Chain of C-C chemokine receptor type 6 (P51684 whole entry): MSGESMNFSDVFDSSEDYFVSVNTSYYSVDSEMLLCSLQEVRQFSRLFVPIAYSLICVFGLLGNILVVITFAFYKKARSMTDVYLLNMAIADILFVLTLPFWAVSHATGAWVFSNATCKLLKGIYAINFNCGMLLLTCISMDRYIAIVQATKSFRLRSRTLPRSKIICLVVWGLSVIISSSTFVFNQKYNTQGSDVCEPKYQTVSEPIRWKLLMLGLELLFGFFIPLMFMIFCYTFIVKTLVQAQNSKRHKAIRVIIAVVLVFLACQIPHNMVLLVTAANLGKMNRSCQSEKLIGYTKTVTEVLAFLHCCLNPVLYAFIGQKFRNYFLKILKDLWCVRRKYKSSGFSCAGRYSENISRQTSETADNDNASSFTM

Beta-galactosidase = Beta-galactosidase (Escherichia coli, UniProt Q8VNN2); test: detection-enzyme interference by beta-gal modulators – biochemical, E. coli enzyme, set 3, artefact control for CCR6 antagonist project, dose response (AID 504712); format: functional
Chain of Beta-galactosidase (Q8VNN2 whole entry): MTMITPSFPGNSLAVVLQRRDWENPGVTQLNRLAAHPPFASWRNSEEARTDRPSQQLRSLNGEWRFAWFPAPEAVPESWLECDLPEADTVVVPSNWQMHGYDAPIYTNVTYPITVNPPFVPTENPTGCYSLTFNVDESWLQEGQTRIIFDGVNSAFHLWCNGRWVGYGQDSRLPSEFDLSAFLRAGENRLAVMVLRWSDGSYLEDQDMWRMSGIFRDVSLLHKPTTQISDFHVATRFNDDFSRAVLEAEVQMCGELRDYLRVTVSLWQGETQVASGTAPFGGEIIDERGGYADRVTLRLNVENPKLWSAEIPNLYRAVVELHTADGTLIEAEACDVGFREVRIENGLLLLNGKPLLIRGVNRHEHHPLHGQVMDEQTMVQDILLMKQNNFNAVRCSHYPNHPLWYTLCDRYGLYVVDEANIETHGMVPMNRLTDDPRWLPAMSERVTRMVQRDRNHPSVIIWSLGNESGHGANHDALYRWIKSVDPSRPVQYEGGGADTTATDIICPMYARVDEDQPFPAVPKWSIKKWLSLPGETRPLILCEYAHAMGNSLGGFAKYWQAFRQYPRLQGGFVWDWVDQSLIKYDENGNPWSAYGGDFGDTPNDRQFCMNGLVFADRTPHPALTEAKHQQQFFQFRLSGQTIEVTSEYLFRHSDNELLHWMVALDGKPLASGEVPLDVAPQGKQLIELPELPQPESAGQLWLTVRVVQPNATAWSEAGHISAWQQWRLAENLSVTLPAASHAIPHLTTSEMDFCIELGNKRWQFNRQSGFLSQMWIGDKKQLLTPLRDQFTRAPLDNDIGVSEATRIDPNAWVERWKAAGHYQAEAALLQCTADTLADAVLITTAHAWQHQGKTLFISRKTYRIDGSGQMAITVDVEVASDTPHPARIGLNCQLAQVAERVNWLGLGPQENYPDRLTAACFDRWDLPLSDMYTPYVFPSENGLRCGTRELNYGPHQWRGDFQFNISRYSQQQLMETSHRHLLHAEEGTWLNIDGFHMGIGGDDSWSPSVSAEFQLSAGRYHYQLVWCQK

Vero = test: cells; format: functional; conditions: Chlorocebus sabaeus
[9] = luciferase reporter signal suppression in cells – H4 neuroglioma cells, luminescence, dose response (AID 1990); format: functional, cell-based
cells [10] = format: functional, cell-based
[11] = Luminescence Cell-Based Dose Response HTS to Identify Inhibitors of 5'UTR Stem-Loop Driven Prion Protein mRNA Translation in H4 Neuroglioblastoma Cells. [Related pubchem assays: 1827 (Project Summary), 1813 (Primary HTS)]; format: functional
[12] = alpha-synuclein stem-loop luciferase translation blockers – H4 neuroglioma cells, luminescence, confirmation (AID 1988); format: functional, cell-based
cells [13] = format: functional, cell-based; remark: listed apart in the source
[14] = NIH3T3 cell viability loss – ATP luminescence, mouse fibroblasts, counter-screen, dose response (AID 2010); format: functional, cell-based;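 further: cells exposed to compound for about 90 hours before reading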
[15] = THP-1 cell cytotoxicity, dose response, cytotoxicity control for non-replicating M. tuberculosis project (AID 489025); format: functional
[16] = HepG2 cell cytotoxicity, dose response, cytotoxicity control for non-replicating M. tuberculosis project (AID 489018); format: functional; conditions: Mycobacterium tuberculosis
[17] = Vero E6 cell cytotoxicity, dose response, cytotoxicity control for non-replicating M. tuberculosis project, secondary assay (AID 492998); format: functional, VeroE6; conditions: Vero C1008
cells [18] = format: functional
H9c2 = test: cells; format: functional, cell-based; conditions: Rattus norvegicus, H9c2, Myocardium;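 further: confirmatory concentration-response retest of ultra-high-throughput screening hits for modulation of myocardial damage; cell death induced by hydrogen peroxide oxidative stress; compound pretreatment for 60 min then peroxide exposure for 2 h; potency is for protecting the cells against peroxide damage rather than for killing them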
[19] = reduction of Shn3 3'UTR-driven luciferase in osteoblasts – cell-based, Clone20 osteoblasts, firefly luciferase, cherry-picked, dose response (AID 624132); format: functional;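 further: firefly luciferase luminescence from reporter carrying the Shn3 3'UTR in osteoblasts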
[20] = loss of viability in HepG2 cells – cell-based, CellTiter-Glo, cherry-picked, cytotoxicity control for Shn3 inhibitor project, dose response (AID 624134); format: functional
[21] = non-specific 3'UTR reporter inhibition in Clone20-Shn3RL – cell-based, Renilla luciferase, cherry-picked, counter-screen for Shn3 inhibitor project, dose response (AID 624133); format: functional
[22] = molecular target: Voltage-dependent T-type calcium channel subunit alpha-1H (Homo sapiens, UniProt O95180); test: human CACNA1H calcium influx blockade – cell-based, synthetic library set 1, calcium flux (AID 493022); format: functional
Chain of Voltage-dependent T-type calcium channel subunit alpha-1H (O95180 whole entry): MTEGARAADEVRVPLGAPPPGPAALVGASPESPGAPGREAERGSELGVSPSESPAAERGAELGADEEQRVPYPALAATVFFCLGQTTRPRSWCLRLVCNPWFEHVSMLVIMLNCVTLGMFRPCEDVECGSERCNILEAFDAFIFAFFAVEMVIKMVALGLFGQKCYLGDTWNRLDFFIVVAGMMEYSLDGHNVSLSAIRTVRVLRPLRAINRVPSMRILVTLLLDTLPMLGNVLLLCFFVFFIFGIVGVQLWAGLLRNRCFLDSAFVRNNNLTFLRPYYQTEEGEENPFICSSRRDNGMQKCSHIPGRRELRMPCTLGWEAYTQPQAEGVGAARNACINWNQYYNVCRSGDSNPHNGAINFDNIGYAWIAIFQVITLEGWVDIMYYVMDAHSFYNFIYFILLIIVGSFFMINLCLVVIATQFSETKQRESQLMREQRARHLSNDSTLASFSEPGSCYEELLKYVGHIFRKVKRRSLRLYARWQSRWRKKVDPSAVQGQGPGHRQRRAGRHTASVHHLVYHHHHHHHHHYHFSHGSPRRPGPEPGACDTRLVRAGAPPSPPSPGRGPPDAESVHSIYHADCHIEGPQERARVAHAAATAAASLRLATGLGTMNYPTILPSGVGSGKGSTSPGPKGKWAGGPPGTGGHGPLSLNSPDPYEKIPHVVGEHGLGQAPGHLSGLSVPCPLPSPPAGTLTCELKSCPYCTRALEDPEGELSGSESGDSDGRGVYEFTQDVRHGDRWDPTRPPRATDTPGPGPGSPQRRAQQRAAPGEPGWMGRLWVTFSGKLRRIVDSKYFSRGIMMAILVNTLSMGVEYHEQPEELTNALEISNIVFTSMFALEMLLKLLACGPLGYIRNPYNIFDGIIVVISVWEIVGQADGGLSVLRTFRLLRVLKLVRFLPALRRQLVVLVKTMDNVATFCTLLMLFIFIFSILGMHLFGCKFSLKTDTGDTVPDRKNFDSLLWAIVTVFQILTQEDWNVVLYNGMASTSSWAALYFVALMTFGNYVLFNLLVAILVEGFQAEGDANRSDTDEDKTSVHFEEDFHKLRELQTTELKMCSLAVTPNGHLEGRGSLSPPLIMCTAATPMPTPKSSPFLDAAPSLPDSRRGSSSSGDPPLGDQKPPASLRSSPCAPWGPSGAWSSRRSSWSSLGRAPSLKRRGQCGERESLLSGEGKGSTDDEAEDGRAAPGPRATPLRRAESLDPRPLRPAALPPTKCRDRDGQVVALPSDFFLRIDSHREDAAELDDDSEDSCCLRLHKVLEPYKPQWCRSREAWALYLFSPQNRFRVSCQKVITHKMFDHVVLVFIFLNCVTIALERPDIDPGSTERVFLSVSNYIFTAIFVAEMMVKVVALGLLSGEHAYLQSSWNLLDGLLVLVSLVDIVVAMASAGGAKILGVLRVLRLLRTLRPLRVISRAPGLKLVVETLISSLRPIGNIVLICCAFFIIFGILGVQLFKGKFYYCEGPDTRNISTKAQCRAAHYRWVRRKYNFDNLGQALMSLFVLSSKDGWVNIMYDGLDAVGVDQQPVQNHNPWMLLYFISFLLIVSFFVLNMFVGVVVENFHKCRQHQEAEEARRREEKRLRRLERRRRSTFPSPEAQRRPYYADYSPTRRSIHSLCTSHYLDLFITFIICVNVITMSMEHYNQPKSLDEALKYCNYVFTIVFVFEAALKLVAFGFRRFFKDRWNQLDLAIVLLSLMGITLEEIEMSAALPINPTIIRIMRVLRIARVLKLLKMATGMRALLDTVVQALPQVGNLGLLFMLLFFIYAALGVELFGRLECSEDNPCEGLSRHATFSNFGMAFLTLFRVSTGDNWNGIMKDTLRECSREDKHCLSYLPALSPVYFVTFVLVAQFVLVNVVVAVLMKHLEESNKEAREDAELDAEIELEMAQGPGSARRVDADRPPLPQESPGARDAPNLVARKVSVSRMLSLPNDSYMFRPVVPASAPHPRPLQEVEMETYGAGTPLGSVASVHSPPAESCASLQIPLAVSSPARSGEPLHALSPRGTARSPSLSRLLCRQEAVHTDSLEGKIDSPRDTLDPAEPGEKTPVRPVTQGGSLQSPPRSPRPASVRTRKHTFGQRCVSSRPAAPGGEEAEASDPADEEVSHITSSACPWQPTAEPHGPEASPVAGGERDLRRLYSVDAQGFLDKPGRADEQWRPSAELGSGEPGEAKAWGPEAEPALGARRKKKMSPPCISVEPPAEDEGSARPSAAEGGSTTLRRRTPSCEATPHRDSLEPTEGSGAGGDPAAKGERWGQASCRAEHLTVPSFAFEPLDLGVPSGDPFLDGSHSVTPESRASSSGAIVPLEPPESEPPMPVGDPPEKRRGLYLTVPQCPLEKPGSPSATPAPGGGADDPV

[23] = protection from phage-mediated lysis, alamar blue read-out – E. coli UTI89, K1F phage, bacterial capsule biogenesis inhibitors (AID 488966); format: functional

Cc1ccccc1N1C(=O)/C(=C/NNC(=O)c2ccccc2O)C(=O)NC1=S
IC50 (Aminopeptidase N): 11.5 µM (active) | EC50 [1]: 21.2 µM (active) | IC50 (SUMO-activating enzyme [2]): 25.7 µM (active) | EC50 [3]: 23.5 µM (active) | EC50 [4]: 30.8 µM (active) | IC50 (SUMO-activating enzyme [5]): 42.4 µM (active) | IC50 (Nonstructural protein 1): 13.4 µM (active)

CCc1ccccc1OCC(=O)Nc1nc(-c2cccnc2)cs1
EC50 [6]: 0.428 µM (active) | EC50 [7]: 1.14 µM (active) | EC50 (Streptococcus): 3.28 µM (active) | IC50 [8]: > 66.6 µM (inactive) | IC50 (Beta-galactosidase): > 66.6 µM (inactive) | CC50 (Vero): > 25 µM (active)

Cc1cc(C)n(-c2ccc3cccc(NS(C)(=O)=O)c3n2)n1
EC50 [9]: 0.137 µM (active) | EC50 (cells [10]): > 350 µM (not active) | EC50 [11]: 7.99 µM (active) | EC50 [12]: 0.159 µM (active) | EC50 [7]: 1.07 µM (active) | EC50 (cells [13]): > 350 µM (not active) | EC50 [14]: 0.68 µM (active) | CC50 [15]: 12.5 µM (active) | CC50 [16]: 19.3 µM (active) | CC50 [17]: 3.8 µM (active) | IC50 (cells [18]): > 25 µM (active) | IC50 (H9c2): > 79 µM (inactive) | AC50 [19]: 1.32 µM (active) | AC50 [20]: 6.2 µM (active) | AC50 [21]: 0.759 µM (active)

O=C(COc1ccc(F)cc1Cl)Nc1nnc(-c2ccc3c(c2)OCCO3)o1
EC50 [22]: 2.6 µM (active)

Clc1ccc2c(NCCNC3CCCCC3)ccnc2c1
IC50 [23]: > 150 µM (active)
